In general, IC50 refers to the concentration that inhibits the measured activity by half.

The target in this assay is Recombinant human ULK1 (1-649) (Homo sapiens (Human), UniProt O75385). Briefly: ULK1 ADP Glo kinase activity assay, new method (ULKtide peptide substrate). Particulars: 25° C., 40 minutes, read-out: ULK1 biochemical IC50. As for the experimental part: Recombinant human ULK1 (1-649) protein expressed in Sf9 insect cells was obtained from SignalChem (Vancouver, BC), catalog #U01-11G. Active kinase was purified via N-terminal GST tag to >85% purity.
Recombinant human ULK1 (1-649), sequence (O75385 1-649): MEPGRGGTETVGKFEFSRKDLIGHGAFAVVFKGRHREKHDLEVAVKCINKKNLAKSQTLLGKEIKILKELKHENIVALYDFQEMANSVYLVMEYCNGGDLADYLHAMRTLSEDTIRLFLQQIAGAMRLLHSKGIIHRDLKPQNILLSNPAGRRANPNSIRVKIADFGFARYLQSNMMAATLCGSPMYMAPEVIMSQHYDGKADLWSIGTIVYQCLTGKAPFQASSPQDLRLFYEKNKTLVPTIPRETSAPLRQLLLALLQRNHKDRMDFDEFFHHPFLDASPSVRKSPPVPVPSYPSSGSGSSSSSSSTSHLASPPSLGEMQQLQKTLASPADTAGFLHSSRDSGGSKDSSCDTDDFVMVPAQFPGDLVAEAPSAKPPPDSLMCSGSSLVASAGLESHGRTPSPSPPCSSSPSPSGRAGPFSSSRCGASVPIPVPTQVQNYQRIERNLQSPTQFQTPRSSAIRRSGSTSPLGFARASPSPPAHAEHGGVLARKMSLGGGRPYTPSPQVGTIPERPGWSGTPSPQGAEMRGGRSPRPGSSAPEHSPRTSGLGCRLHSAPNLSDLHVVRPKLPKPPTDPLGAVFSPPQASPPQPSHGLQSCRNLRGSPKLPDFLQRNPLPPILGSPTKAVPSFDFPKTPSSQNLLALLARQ
ADP GLO Kinase Assay Reagents were obtained from Promega Corp (Madison, WI), catalog #V9104.
Synthetic peptide substrate (ULKtide) with the amino acid sequence YANWLAASIYLDGKKK was obtained from ThermoFisher Scientific USA.
ULK1 inhibitor potency was determined using the luminescent ADP Glo Kinase Assay (Promega), a universal ADP detection system that measures kinase activity by quantifying the amount of ADP produced during a kinase reaction. ULK1 kinase reactions are performed in a standard 96-well microplate (20 μL reaction volume) at 25° C. for 40 minutes in the presence or absence of the test compound (12-point dilution series starting at 10 μM). Addition of peptide substrate and ATP initiates the kinase reaction.
The standard ADP Glo assay is performed in two steps. In step one, following the kinase reaction, an equal volume of ADP-Glo™ Reagent (20 μL) is added to terminate the kinase reaction and deplete the remaining ATP. In the second step, the Kinase Detection Reagent (10 μL) is added to simultaneously convert ADP to ATP and allow the newly synthesized ATP to be measured using a luciferase/luciferin reaction. Step two of the ADP Glo assay is performed in a white 384-well plate (20 μL final volume). Thirty minutes after the addition of the Detection reagent, light generated from the luciferase reaction is measured (1 second exposure) using a microplate compatible luminometer (CLARIOstar, BMG Labtech).
Inhibition of ULK1 kinase activity is determined for each test compound by comparison to DMSO only control wells. Inhibitor IC50 was calculated by plotting the change in luminescence after 30 minutes (response) versus inhibitor concentration (in log molar) then applying the four-parameter variable slope curve fit (GraphPad Prism). Inhibition of ULK1 in biochemical assay is found in Table 4.
On the technique in general: ADP-Glo turns the ADP formed in a reaction into a luminescent signal.
In the case of `Cc1nn(C2CCN(C)CC2)cc1Nc1ncc(C(F)(F)F)c(-c2cc3c(s2)C(=O)NCCS3(=O)=O)n1` [Example 182, 7-(2-((3-methyl-1-(1-methylpiperidin-4-yl)-1H-pyrazol-4-yl)amino)-5-(trifluoromethyl)pyrimidin-4-yl)-3,4-dihydrothieno[2,3-f][1,4]thiazepin-5(2H)-one 1,1-dioxide], the IC50 is above 100 nM.

Regarding `Cc1nn(C2CCN(C)CC2)cc1Nc1ncc(C(F)(F)F)c(-c2cc3c(s2)C(=O)N(C)CCS3(=O)=O)n1` [Example 183, 4-methyl-7-(2-((3-methyl-1-(1-methylpiperidin-4-yl)-1H-pyrazol-4-yl)amino)-5-(trifluoromethyl)pyrimidin-4-yl)-3,4-dihydrothieno[2,3-f][1,4]thiazepin-5(2H)-one 1,1-dioxide], the 50% inhibitory concentration (IC50) is above 100 nM. Regarding `Cc1cc2c(cc1Nc1ncc(C(F)(F)F)c(-c3cc4c(s3)C(=O)N(C)CCS4(=O)=O)n1)CCNC2` [Example 184, 4-methyl-7-(2-((7-methyl-1,2,3,4-tetrahydroisoquinolin-6-yl)amino)-5-(trifluoromethyl)pyrimidin-4-yl)-3,4-dihydrothieno[2,3-f][1,4]thiazepin-5(2H)-one 1,1-dioxide], the IC50 is at most 5 nM. For the molecule `CCN1CCc2cc(Nc3ncc(C(F)(F)F)c(-c4cc5c(s4)C(=O)N(C)CCS5(=O)=O)n3)c(C)cc2C1` [Example 185, 7-(2-((2-ethyl-7-methyl-1,2,3,4-tetrahydroisoquinolin-6-yl)amino)-5-(trifluoromethyl)pyrimidin-4-yl)-4-methyl-3,4-dihydrothieno[2,3-f][1,4]thiazepin-5(2H)-one 1,1-dioxide], the concentration for half-maximal inhibition (IC50) is at most 5 nM. In the case of `CCN1CCc2cc(Nc3ncc(C(F)(F)F)c(-c4cc5c(s4)C(=O)N(C)CCS5(=O)=O)n3)c(C3CC3)cc2C1` [Example 186, 7-(2-((7-cyclopropyl-2-ethyl-1,2,3,4-tetrahydroisoquinolin-6-yl)amino)-5-(trifluoromethyl)pyrimidin-4-yl)-4-methyl-3,4-dihydrothieno[2,3-f][1,4]thiazepin-5(2H)-one 1,1-dioxide] it was at most 5 nM; in that of `Cc1nn(CCN(C)C)cc1Nc1ncc(C(F)(F)F)c(-c2cc3c(s2)C(=O)N(C)CCS3(=O)=O)n1` [Example 187, 7-(2-((1-(2-(dimethylamino)ethyl)-3-methyl-1H-pyrazol-4-yl)amino)-5-(trifluoromethyl)pyrimidin-4-yl)-4-methyl-3,4-dihydrothieno[2,3-f][1,4]thiazepin-5(2H)-one 1,1-dioxide], at most 5 nM; in that of `CCN1CCc2cc(Nc3ncc(C(F)(F)F)c(-c4cc5c(s4)C(=O)N(C)CCS5(=O)=O)n3)c(SC)cc2C1` [Example 188, 7-(2-((2-ethyl-7-(methylthio)-1,2,3,4-tetrahydroisoquinolin-6-yl)amino)-5-(trifluoromethyl)pyrimidin-4-yl)-4-methyl-3,4-dihydrothieno[2,3-f][1,4]thiazepin-5(2H)-one 1,1-dioxide], at most 5 nM. With `CN1CCS(=O)(=O)c2cc(-c3nc(Nc4cc(N5CCNCC5)ccc4Cl)ncc3C(F)(F)F)sc2C1=O` [Example 189, 7-(2-((2-chloro-5-(piperazin-1-yl)phenyl)amino)-5-(trifluoromethyl)pyrimidin-4-yl)-4-methyl-3,4-dihydrothieno[2,3-f][1,4]thiazepin-5(2H)-one 1,1-dioxide], the 50% inhibitory concentration (IC50) lay within 50 to 100 nM. On to `CCN1Cc2cc(F)c(Nc3ncc(C(F)(F)F)c(-c4cc5c(s4)C(=O)N(C)CCS5(=O)=O)n3)cc2C1` [Example 190, 7-(2-((2-ethyl-6-fluoroisoindolin-5-yl)amino)-5-(trifluoromethyl)pyrimidin-4-yl)-4-methyl-3,4-dihydrothieno[2,3-f][1,4]thiazepin-5(2H)-one 1,1-dioxide], for which the IC50 was at most 5 nM.

With `CCN1Cc2ccc(Nc3ncc(C(F)(F)F)c(-c4cc5c(s4)C(=O)N(C)CCS5(=O)=O)n3)c(C3CC3)c2C1` [Example 191, 7-(2-((4-cyclopropyl-2-ethylisoindolin-5-yl)amino)-5-(trifluoromethyl)pyrimidin-4-yl)-4-methyl-3,4-dihydrothieno[2,3-f][1,4]thiazepin-5(2H)-one 1,1-dioxide], the IC50 was in the range of 50 to 100 nM. For the molecule `CCN1Cc2cc(C)c(Nc3ncc(C(F)(F)F)c(-c4cc5c(s4)C(=O)N(C)CCS5(=O)=O)n3)cc2C1` [Example 192, 7-(2-((2-ethyl-6-methylisoindolin-5-yl)amino)-5-(trifluoromethyl)pyrimidin-4-yl)-4-methyl-3,4-dihydrothieno[2,3-f][1,4]thiazepin-5(2H)-one 1,1-dioxide], the IC50 is at most 5 nM. On to `CN1CCS(=O)(=O)c2cc(-c3nc(Nc4ccc(N5CCNCC5)cc4Cl)ncc3C(F)(F)F)sc2C1=O` [Example 193, 7-(2-((2-chloro-4-(piperazin-1-yl)phenyl)amino)-5-(trifluoromethyl)pyrimidin-4-yl)-4-methyl-3,4-dihydrothieno[2,3-f][1,4]thiazepin-5(2H)-one 1,1-dioxide], for which the IC50 is at most 5 nM. As for `CCN1CCN(c2ccc(Nc3ncc(C(F)(F)F)c(-c4cc5c(s4)C(=O)N(C)CCS5(=O)=O)n3)c(Cl)c2)CC1` [Example 195, 7-(2-((2-chloro-4-(4-ethylpiperazin-1-yl)phenyl)amino)-5-(trifluoromethyl)pyrimidin-4-yl)-4-methyl-3,4-dihydrothieno[2,3-f][1,4]thiazepin-5(2H)-one 1,1-dioxide], the figure is at most 5 nM; as for `CCc1cc(N2CCN(C)CC2)ccc1Nc1ncc(C(F)(F)F)c(-c2cc3c(s2)C(=O)N(C)CCS3(=O)=O)n1` [Example 196, 7-(2-((2-ethyl-4-(4-methylpiperazin-1-yl)phenyl)amino)-5-(trifluoromethyl)pyrimidin-4-yl)-4-methyl-3,4-dihydrothieno[2,3-f][1,4]thiazepin-5(2H)-one 1,1-dioxide], at most 5 nM.

For `CCc1cc(N2CCN(CC)CC2)ccc1Nc1ncc(C(F)(F)F)c(-c2cc3c(s2)C(=O)N(C)CCS3(=O)=O)n1` [Example 197, 7-(2-((2-ethyl-4-(4-ethylpiperazin-1-yl)phenyl)amino)-5-(trifluoromethyl)pyrimidin-4-yl)-4-methyl-3,4-dihydrothieno[2,3-f][1,4]thiazepin-5(2H)-one 1,1-dioxide], the IC50 is at most 5 nM.

Regarding `CCN1CCS(=O)(=O)c2cc(-c3nc(Nc4cc5c(cc4C4CC4)CNCC5)ncc3C(F)(F)F)sc2C1=O` [Example 198, 7-(2-((7-cyclopropyl-1,2,3,4-tetrahydroisoquinolin-6-yl)amino)-5-(trifluoromethyl)pyrimidin-4-yl)-4-ethyl-3,4-dihydrothieno[2,3-f][1,4]thiazepin-5(2H)-one 1,1-dioxide], the IC50 is at most 5 nM.

Take `CCN1CCc2cc(Nc3ncc(C(F)(F)F)c(-c4cc5c(s4)C(=O)N(CC)CCS5(=O)=O)n3)c(C3CC3)cc2C1` [Example 199, 7-(2-((7-cyclopropyl-2-ethyl-1,2,3,4-tetrahydroisoquinolin-6-yl)amino)-5-(trifluoromethyl)pyrimidin-4-yl)-4-ethyl-3,4-dihydrothieno[2,3-f][1,4]thiazepin-5(2H)-one 1,1-dioxide]: the IC50 was at most 5 nM.

The values are drawn from patent US20250144094A1 (Erasca, Inc., priority 2021, published 2025).
